Consider ten molecules from ChEMBL document CHEMBL1201862, “PubChem BioAssay data set” (2004).

Common to all, as to assay: NCI anticancer screen, dose series, 48 h
Assay [1] deals with RXF 631.
Assay [2] relates to KM-20L2.
For assay [3], the system named is DMS-114.
Assay [4] deals with LXFL 529.
For assay [5], the system named is M19-MEL.
Assay [6] relates to DLD-1.
The test system of assay [7] is XF498.
Assay [8] relates to DMS-273.
Assay [9] relates to HOP-18.

Molecules are shown by their SMILES.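 Protocol summary: plate cells (96-well), add compound at 5 concentrations, incubate 48 h, interpolate endpoints linearly. GI50: concentration for 50% inhibition of growth.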 Calls of active or inactive are those of the source. Rule as the data show it: active = GI50 up to about 1.1 µM and inactive = higher. Some results are limits rather than exact numbers.

For the molecule `CCCCCNC(=O)c1c(O)[nH]c(=S)[nH]c1=O`, the GI50 is > 100 µM (inactive) in assay [1]; > 100 µM (inactive) in assay [2]; 60.7 µM (inactive) in [3]; > 100 µM (inactive) in [4]; > 100 µM (inactive) in [5].

Regarding `COc1cc[n+](C)cc1`, the GI50 in [6], in assay [2], in assay [7], in assay [3], in assay [8] and in assay [9] was > 100 µM (inactive) throughout. Besides, in [5], the GI50 is > 100 µM (inactive).

For `CC1(O)CCC2(C#N)CCC1C2O` (configuration not stated), the GI50 in [1] is > 100 µM (inactive); in [6], 34 µM (inactive); in [2], 62.2 µM (inactive); in [7], > 100 µM (inactive); in [3], 16.2 µM (inactive); in [8] it was 94.4 µM (inactive). Moreover, the GI50 in assay [4], in assay [9] and in assay [5] was > 100 µM (inactive) throughout.

In the case of `Cc1c(/C=N/NC(=O)c2ccccc2O)c(=O)n(-c2ccccc2)n1C`, the GI50 is > 100 µM (inactive) in assay [6]; > 100 µM (inactive) in [2]; > 100 µM (inactive) in assay [7]; > 100 µM (inactive) in assay [3]; 58.5 µM (inactive) in assay [8]; > 100 µM (inactive) in assay [4]. Moreover, the GI50 in assay [9] and in [5] was > 100 µM (inactive) throughout.

Consider `O=c1cc(O)ccn1C1C=C(CO)C(O)C1O` (configuration not stated), for which the GI50 in [6] is > 625 µM (inactive); in [2], > 625 µM (inactive); in [7] it was < 0.0625 µM (active); in assay [3], > 625 µM (inactive); in assay [8], > 625 µM (inactive); in [9], > 625 µM (inactive).

Take `CC(=O)Nc1ccccc1-c1nc2ccccc2nc1C`: the GI50 in assay [1], in assay [6], in assay [2], in [3], in [4] and in assay [9] was > 100 µM (inactive) each time. For the same molecule, the GI50 in assay [5] was > 100 µM (inactive).

On to `COc1cc(-c2ccc(/N=N/c3c(S(=O)(=O)O)cc4cc(S(=O)(=O)O)cc(N)c4c3O)c(OC)c2)ccc1/N=N/c1c(S(=O)(=O)O)cc2cc(S(=O)(=O)O)cc(N)c2c1O`, for which the GI50 in [6] was > 94 µM (inactive); in assay [2], 35 µM (inactive); in [7] it was 6.89 µM (inactive); in assay [3] it was 73.1 µM (inactive); in assay [8], > 74.6 µM (inactive); in assay [5] it was > 100 µM (inactive).

`O=C(CSc1nnc(-c2ccc(/N=C\c3ccc(Cl)cc3)cc2)o1)Nc1ccccc1`: the GI50 in [2] is > 100 µM (inactive); in [7], > 100 µM (inactive); in assay [3], 58.1 µM (inactive); in assay [8], 27.3 µM (inactive); in [4] it was 50.6 µM (inactive); in assay [9], 54.2 µM (inactive). For the same molecule, in assay [5], the GI50 is 36.6 µM (inactive).

Consider `CC(=O)C(/N=N\C1CCC(S(=O)(=O)NB2N=CS2)CC1)C(=O)Nc1ccccc1C` (configuration not stated), for which the GI50 in [6] is 16.9 µM (inactive); in assay [2], 15.9 µM (inactive); in assay [7], 16.9 µM (inactive); in assay [3], 11.9 µM (inactive); in assay [8], 20.6 µM (inactive); in assay [4] it was 14.2 µM (inactive). Further, the GI50 in assay [9] was 29.3 µM (inactive); in assay [5], 17.6 µM (inactive).

For the molecule `N#C/C(=C\c1ccc(C(O)P(=O)(O)O)cc1)C(N)=O` (configuration not stated), the GI50 in assay [1] was > 100 µM (inactive); in assay [6] it was > 100 µM (inactive); in assay [2] it was > 100 µM (inactive); in [7], > 100 µM (inactive); in assay [3] it was 17.2 µM (inactive); in assay [8], > 100 µM (inactive). For the same molecule, the GI50 in assay [4], in [9] and in assay [5] was > 100 µM (inactive) throughout.
